Source: patent US8883500B2, “Method of preparing adenosine-resistant anti-tumor T lymphocytes for adoptive immunotherapy” (Northeastern University, priority 2008, dated 2014)
Values joined by “and” are separate entries in the source; they are usually repeats but may differ in a detail not shown here. Equal entries are not always repeated.

Columns and labels:
[1] = tested on: A2A/A2B adenosine receptor; test: cAMP assay in CTL; assay type: cell-based, mice; conditions: control CTL; cAMP inducer 10 μM (FIG. 6 legend), 15 min
Method: Stimulation of cAMP production and measurement of cAMP levels were performed as described previously (Apasov et al., 2000). […]; from Tocris, Ellisville, Mo.), or forskolin (adenylate cyclase activator; from Sigma). […]

[2] = tested on: CTL; test: IFN-γ production from CTL restimulated by immobilized anti-CD3 and anti-CD28 mAbs (ELISA); assay type: cell-based, mice; set-up: IFN-γ levels (%) of corresponding CTL without CGS/NECA / IFN-γ levels (%), None (reference = 100): unit of the concentration uncertain; conditions: for IFN-γ levels (%) of corresponding CTL without CGS/NECA: anti-CD3/anti-CD28 24 h in presence of the agonist (10 (unit uncertain)); for IFN-γ production: control CTL restimulated with anti-CD3 mAb, agonist 10 μM; for IFN-γ levels: restimulation without agonist (None); for IFN-γ levels (%), None (reference = 100): no agonist at restimulation
Method: CTL (2×10^5 cells) were washed twice with media and restimulated by plate-bound anti-CD3 and anti-CD28 monoclonal antibodies (mAb) (BD Biosciences, San Diego, Calif.). Anti-CD3 mAb (2 μg ml^−1) and anti-CD28 mAb (1 μg ml^−1) diluted in PBS were immobilized in a flat-bottom 96-well plastic culture plate for 1 h at 37° C. before use. In order to examine anti-tumor cellular response, CTL (2×10^5 cells) were also cultured with mitomycin C-treated P815 mastocytoma (2.5×10^5 cells). […]. Culture supernatant after 24-48 h was assayed for IFN-γ levels by ELISA.

[3] = tested on: CD8+ T cells; test: Flowcytometric analysis (CD8 proportion, intracellular IFN-γ staining); assay type: cell-based, mice; conditions: for reduction of IFN-γ producers: control CTL, agonist 10 μM
Method: Cells recovered from mixed lymphocyte culture were labeled with phycoerythrin-conjugated anti-CD8, allophycocyanin-conjugated anti-CD4 and fluorescein-conjugated anti-CD69 mAb, and were analyzed by FACSCalibur (BD Biosciences). Cytokine production from CTL was analyzed by intracellular staining as described (Nishimura et al., 1999). After the stimulation with immobilized anti-CD3 and anti-CD28 mAb for 24 h, cells were further incubated in the presence of brefeldin A (10 μg ml^−1) for 2 h. Cells were fixed with 4% parafolmaldehyde-PBS for 15 min, permeabilized with permeabilizing buffer (50 mM NaCl, 5 mM EDTA, 0.02% NaN3, 0.5% Triton X-100, 10 mM Tris-HCl, pH 7.5) for 15 min, and stained with fluorescein-labeled anti-IFN-γ mAb. IFN-γ-producing CD8^+ cells were identified by cell surface staining using phycoerythrin-conjugated anti-CD8 mAb. All antibodies were obtained from BD Biosciences.

[4] = tested on: mixed lymphocyte culture of C57BL/6 and DBA/2 spleen cells (CTL); test: Mixed lymphocyte culture: cell proliferation ([3H] thymidine incorporation) and cell number; assay type: cell-based, mice; conditions: for cell number, % of control: primary mixed lymphocyte culture 5 days
Method: (§1) Antigen-specific cytotoxic T cells were induced by allogenic mixed lymphocyte culture using spleen cells from C57BL/6 (H-2^b) and DBA/2 (H-2^d) mice. Spleen cells from DBA/2 mice were pretreated with 50 μg ml^−1 mitomycin C (Sigma; St. Louis, Mo.) for 30 min at 37° C. After washing three times by centrifugation, 2×10^6 DBA/2 spleen cells (stimulator) were mixed with 6×10^6 C57BL/6 spleen cells (responder) in 2 ml of RPMI1640 medium containing 10% fetal calf serum. The cells were cultured for 5 days in a 12 well plastic plate. In some experiments, CTL (2×10^6 cells) were restimulated on day 5 using mitomycin C-treated DBA/2 spleen cells (4×10^6 cells). The restimulated cells were cultured for additional 2 days, and were analyzed on day 7.
(§2) Culture supernatant was collected 5 days after the set up of mixed lymphocyte culture or 2 days after restimulation and was stored at 4° C. for subsequent measurement of interferon-γ (IFN-γ) levels. IFN-γ was quantified by ELISA (R&D Systems; Minneapolis, Minn.) according to manufacturer's instruction. Cells were incubated for additional 4 h in the presence of 1 μCi [3H] thymidine (American Radiolabeled Chemicals, St. Louis, Mo.) and radioactivity of incorporated thymidine was counted.

[5] = tested on: mixed lymphocyte culture of C57BL/6 and DBA/2 spleen cells (CTL); test: IFN-γ levels in mixed lymphocyte culture supernatant (ELISA); assay type: cell-based, mice; conditions: for IFN-γ levels in the culture supernatant, decreased to: primary mixed lymphocyte culture 5 days
Method: as §1, §2

[6] = tested on: P815 mastocytoma; test: Cytotoxicity assay, 51Cr release
Method: Cytotoxicity of T cells against P815 mastocytoma (H-2^d) was determined by ^51Cr release assay. Initially, P815 cells (2×10^6) were incubated with 100 μCi [^51Cr] sodium chromate (Perkin Elmer, Boston, Mass.) for 1 h at 37° C. The cells were washed for three times by centrifugation to remove excess radioactivity. The labeled P815 cells (1×10^4 cells) were mixed with the effector cells recovered from mixed lymphocyte culture in a volume of 150 μl. […] Sedimentation of the cells in a v-bottom 96 well plate by brief centrifugation was followed by incubation at 37° C. After 4 h, ^51Cr release in the supernatant from target cells was counted using γ-radiation counter. Spontaneous ^51Cr release was measured by culturing target cells alone. Maximum ^51Cr release was measured by adding 1N hydrochloric acid to the same number of target cells. Cytotoxicity was calculated as percentage cell lysis when spontaneous and maximum ^51Cr release were set to 0% and 100%, respectively.

[7] = CTL developed with NECA (0.1 (unit uncertain))
[8] = CTL developed with NECA (1 (unit uncertain))
[9] = CTL developed with NECA (10 (unit uncertain))
[10] = NECA (0.1-1 μM) added only for 2 days after restimulation of 5-day CTL

CCNC(=O)[C@H]1O[C@@H](n2cnc3c(N)nc(NCCc4ccc(CCC(=O)O)cc4)nc32)[C@H](O)[C@@H]1O [CGS] was tested, and the “increase of cAMP levels” value [1] was 7.4 fold, the “IFN-γ levels (%) of corresponding CTL without CGS/NECA” value [2, 7] was 57 ± 8 % and the “IFN-γ levels (%) of corresponding CTL without CGS/NECA” value [2, 8] was 67 ± 10 %. For the same compound, the “IFN-γ levels (%) of corresponding CTL without CGS/NECA” value [2, 9] was 80 ± 13 %, the “IFN-γ levels (%) of corresponding CTL without CGS/NECA” value ([2]; Control CTL) was 44% and 44 ± 11% and the IFN-γ production [2] was “strongly inhibited”. For the same compound, the “IFN-γ producing capacity retained” value ([2]; negatively selected NECA-CTL tested for inhibition by CGS) was “up to 80%” and the “reduction of IFN-γ producers” value [3] was 70%.
CCNC(=O)[C@H]1O[C@@H](n2cnc3c(N)ncnc32)[C@H](O)[C@@H]1O [NECA, 5′-N-ethylcarboxamidoadenosine] was tested, and the “proliferation of CTL after restimulation” value [4, 10] was “inhibit proliferation of CTL”, the “cell number, % of control” value ([4]; NECA 0.1 μM) was 78% and the “cell number, % of control” value ([4]; NECA 1 μM) was 72%. For the same compound, the “cell number, % of control” value ([4]; NECA 10 μM) was 68%, the “Cell proliferation, [3H] thymidine incorporation, decreased to” value ([4]; primary mixed lymphocyte culture, 5 days in the presence of NECA (0.1-10 μM)) was 30-40% and the “IFN-γ levels in the culture supernatant after restimulation” value [5, 10] was “inhibit”. For the same compound, the “IFN-γ levels in the culture supernatant, decreased to” value ([5]; 10^−5 M NECA) was 18%, the “IFN-γ levels in the culture supernatant, decreased to” value ([5]; 10^−7 M NECA) was 44% and the “increase of cAMP levels” value [1] was 11.1 fold. The IFN-γ levels ([2]; CTL developed with NECA 0.1 μM (table; 0.1 μM)) was 3722 pg/mL, the IFN-γ levels ([2]; CTL developed with NECA 1 mM (table; 1 μM)) was 2327 pg/mL and the IFN-γ levels ([2]; CTL developed with NECA 10 mM (table; 10 μM)) was 1089 pg/mL. For the same compound, the “IFN-γ levels (%) of corresponding CTL without CGS/NECA” value [2, 7] was 44 ± 12 %, the “IFN-γ levels (%), None (reference = 100)” value [2, 7] was 100 ± 23% and the “IFN-γ levels (%) of corresponding CTL without CGS/NECA” value [2, 8] was 56 ± 8 %. The “IFN-γ levels (%), None (reference = 100)” value [2, 8] was 100 ± 19%, the “IFN-γ levels (%) of corresponding CTL without CGS/NECA” value [2, 9] was 60 ± 8 % and the “IFN-γ levels (%), None (reference = 100)” value [2, 9] was 100 ± 5%. The “IFN-γ levels (%) of corresponding CTL without CGS/NECA” value ([2]; Control CTL) was 28 ± 7%, the IFN-γ production [2] was “strongly inhibited” and the “proportion of CD8+ T cells in the expanded cells” value ([3]; NECA added only for 2 days after restimulation) was “unchanged from control CTL”. For the same compound, the “reduction of IFN-γ producers” value [3] was 70%, the “Cytotoxicity, % of control” value ([6]; CTL from primary culture with 10^−5 M NECA, effector-target ratio 5:1) was 33% and the “cytotoxicity against P815” value ([6]; NECA added only for 2 days after restimulation, effector-target ratio 5:1, 2.5:1, 1.25:1) was “not impaired”.
